Results on five molecules are retold here after publication PMC8654832 (Scientific Reports, 2021).

Read-outs that look alike come from different tables or passages of the source.

The target in data set [1] is T1, catalytic subunit of human protein kinase CK2 (hCK2α) (Homo sapiens, UniProt P68400). The experiment in a line: Microscale thermophoresis (MST) pseudo-titration. Format: binding. The arrangement: made in house; host or cells: Escherichia coli BL21(DE3), plasmid pET28. How it is done:
Samples of protein (50 nM in 25 mM Hepes buffer pH 8 with 0.5 M NaCl and 1%DMSO content v/v) labeled with Monolith His-Tag Labeling Kit RED-tris-NTA kit (NanoTemper Technologies) were prepared with varying ligand concentration according to previously described protocol. The measurements were performed using Monolith NT.115 (NanoTemper Technologies) apparatus in standard capillaries (Nanotemper Technologies). For each ligand six independent pseudo-titration experiments, each with 16 ligand dilutions, were performed. […] The model of two independent binding sites, implemented in origin, has been already described and tested. It is worth noting that the used method of data treatment goes beyond the standard MST software capabilities.

Data set [2] relates to HCT116p53-/- (colorectal carcinoma). The experiment in a line: Cell viability, MTT assay. As to conditions: 72 h, read-out: Cell viability data, IC50.
The subject of data set [3] is HEPG2 (hepatocellular carcinoma). The experiment in a line: Cell viability, MTT assay. As to conditions: read-out: Cell viability data, IC50.
Data set [4] relates to mitochondrial inner membrane potential (ΔΨ). The experiment in a line: Mitochondrial inner membrane potential, Rhodamine 123 fluorescence quenching in isolated mitochondria. As to conditions: for ligand concentration required to recover 50% of the initial fluorescence drop: Rhodamine 123, yeast mitochondria energized with EtOH, normalized to CCCP; for ligand concentration at which relative fluorescence c.a. 0.95 was reached / ligand concentration at which the membrane potential is almost fully uncoupled: Rhodamine 123, yeast mitochondria; for ligand concentration at which relative fluorescence c.a. 0.95 was reached: 1 = fully uncoupled (CCCP). An excerpt:
In response to variations in ΔΨ this dye accumulates proportionally inside the mitochondrial matrix, where its fluorescence is quenched, thus fluorescence changes reflect the changes in the IM potential[33],[34]. […] All the data were normalized relative to the fluorescence intensity after addition CCCP (set to 1).
To quantify the effect of ligand addition we have compared the ligand concentrations required to recover 50% of the initial fluorescence drop (dotted line), i.e. the average of value after addition of EtOH and fully decoupled ΔΨ.
At the end of each experiment the carbonyl cyanide-m-chlorophenyl hydrazone (CCCP, the IM potential uncoupler) was added at 4 μM for the normalization.

Data set [5] deals with HCT116 (colorectal carcinoma). The experiment in a line: Cell viability, MTT assay. As to conditions: read-out: Cell viability data, IC50.
The target of data set [6] is T1, catalytic subunit of human protein kinase CK2 (hCK2α). The experiment in a line: Isothermal titration calorimetry (ITC), reverse mode.
For data set [7], the system named is A-431 (epidermoid carcinoma). Nature of the data set: Cell viability, MTT assay. The note with it: read-out: Cell viability data, IC50.
Data set [8] has as its target T1, catalytic subunit of human protein kinase CK2 (hCK2α). The arrangement: made in house; host or cells: Escherichia coli BL21(DE3), plasmid pET28. The note with it: DSF, binding to hCK2α, cited from earlier work.
Data set [9] is described as follows: Dynamic light scattering (DLS), aggregation in aqueous medium. Type of data set: physicochemical. As to conditions: 25 mM Tris–HCl pH 8, 0.5 M NaCl, 2% DMSO, 25 °C. How it is done: Experiments were carried out at 25 °C with the DynaPro NanoStar 192-DPN apparatus (Wyatt Technology) equipped with 661 nm laser. The autocorrelation function for the light scattered by solute placed in Eppendorf disposable cuvettes (50–2000 μl) was measured in the range of 0.5 μs– 0.1 s at solute concentration for which short-time ACF signal approached 0.2. Solutions with 2% (v/v) DMSO content were prepared in 25 mM Tris–HCl (pH 8, 0.5 M NaCl) filtered with 220 nm pore size syringe filter. All samples were centrifuged (9000 g) for 3 min immediately before the experiment.

Another data set has as its target T2, hCK2α (Homo sapiens, UniProt P68400).
T2 construct: made in house; host or cells: Escherichia coli BL21(DE3), plasmid pET28
The experiment in a line: In vitro inhibition of hCK2α, ADP-Glo kinase assay. As to conditions: 10 μM ATP, 10 μM peptide […], 20 min at 30 °C. Format: biochemical. How it is done: The compound inhibitory activity was monitored based on the luminescence measured with the SpectraMax iD3 Multi-Mode Microplate Reader (Molecular Devices, San Jose, CA, USA), using the previously described method with the aid of ADP-Glo kinase assay (Promega, Walldorf, Germany)[35]. The measurements were carried in 96-well plate in volume of 25 μl in 20 mM Tris–HCl buffer (pH 7.5), containing 100 ng of hCK2α (1 μl), 10 μM CK2 substrate peptide […] (Biaffin GmbH & Co KG), 10 μM ATP, 20 mM MgCl2 and 2.5 μl of ligand serially diluted in DMSO. The reaction was initiated by adding the enzyme and kept going for 20 min at 30 °C.

The mark [10] stands for this setting: second, weak site (solvent exposed region at alpha/beta interface), read-out: Kd2.
The mark [11] stands for this setting: strongly binding site (ATP-binding site), pH 8, 0.5 M NaCl, 1% DMSO, read-out: Kd1.

T1 sequence (P68400 whole entry): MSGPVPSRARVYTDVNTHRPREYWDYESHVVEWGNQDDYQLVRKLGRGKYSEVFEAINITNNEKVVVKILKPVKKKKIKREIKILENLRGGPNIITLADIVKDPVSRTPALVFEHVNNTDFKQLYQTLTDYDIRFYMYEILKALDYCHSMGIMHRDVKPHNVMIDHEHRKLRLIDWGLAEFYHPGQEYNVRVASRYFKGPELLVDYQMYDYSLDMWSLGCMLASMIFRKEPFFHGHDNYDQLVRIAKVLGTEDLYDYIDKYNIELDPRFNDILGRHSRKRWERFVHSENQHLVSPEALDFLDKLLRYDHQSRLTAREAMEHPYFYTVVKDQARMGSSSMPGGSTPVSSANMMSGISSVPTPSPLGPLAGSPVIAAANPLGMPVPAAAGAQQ
T2 sequence (P68400 whole entry): as above

Regarding `Brc1c(I)c(I)c(Br)c2[nH]nnc12` [BIIB, 4,7-dibromo-5,6-diiodo-1H-benzotriazole], the Kd in data set [1] (setting [10]) came out at 43 ± 22 nM; in data set [1] (setting [11]) it was 3 ± 6 nM; in [6], 1.3 ± 1.4 nM; in data set [6] (read-out: Kd2, ITC, second site (solvent exposed region at alpha/beta interface)), 82 ± 42 nM. For the same molecule, the IC50 in [2] (Homo sapiens) was 2500 ± 200 nM; in data set [3] (Homo sapiens, HepG2, 72 h), 1500 ± 300 nM; in data set [5] (Homo sapiens, HCT-116, 72 h), 1800 ± 300 nM; in data set [7] (Homo sapiens, A-431, 72 h) it was 2200 ± 300 nM; against hCK2α, 230 ± 150 nM. The “ligand concentration required to recover 50% of the initial fluorescence drop” value in data set [4] is recorded as “less than 2 µM”. For the same molecule, the “ligand concentration at which relative fluorescence c.a. 0.95 was reached” value in [4] was around 4 µM. The ΔS1 in data set [6] (ITC, 25 °C, strongly binding site) is listed as 123 ± 10 J/mol/K. In data set [6] (ITC, second site), the ΔS2 worked out at 93 ± 5 J/mol/K. In [8] (literature data ref 20), the ΔTm is 10.8 ± 0.1[20] K. For the same molecule, in data set [9], the “solute concentration at which the similar ACF distribution (nano-aggregates, radius 50–100 nm) was observed” value came out at 40 µM.

Regarding `Brc1cc2nn[nH]c2cc1Br` [HBBH, 5,6-dibromo-1H-benzotriazole, reference compound], the Kd in [1] (setting [10]) was found to be 327 ± 95 nM; in [1] (setting [11]) it was 29 ± 13 nM; in [6], 34 ± 4 nM. Further, the IC50 in data set [2] (Homo sapiens) was determined as 13000 ± 3000 nM; in [3] (Homo sapiens, HepG2, 72 h), 18000 ± 4000 nM; in data set [5] (Homo sapiens, HCT-116, 72 h), 19000 ± 6000 nM; in [7] (Homo sapiens, A-431, 72 h), 12000 ± 2000 nM; on hCK2α, 1190 ± 530 nM. Also, the “ligand concentration at which the membrane potential is almost fully uncoupled” value in data set [4] is given as around 15 µM. In addition, in data set [4], the “ligand concentration required to recover 50% of the initial fluorescence drop” value is listed as above 5 µM. Further, the “ligand concentration at which relative fluorescence c.a. 0.95 was reached” value in data set [4] is reported as around 12 µM. Moreover, in data set [8] (literature data ref 18), the ΔTm was 7.4 ± 0.1[18] K. The “solute concentration at which the similar ACF distribution (nano-aggregates, radius 50–100 nm) was observed” value in data set [9] is on record as 160 µM.

Turning to `Ic1cc2nn[nH]c2cc1I` [HIIH, 5,6-diiodo-1H-benzotriazole], the Kd in data set [1] (setting [10]) turned out to be 374 ± 83 nM; in [1] (setting [11]), 15 ± 7 nM; in data set [6], 22 ± 4 nM. Further, the IC50 in [2] (Homo sapiens) came out at 9400 ± 1400 nM; in [3] (Homo sapiens, HepG2, 72 h), 3300 ± 400 nM; in data set [5] (Homo sapiens, HCT-116, 72 h), 6100 ± 1300 nM; in data set [7] (Homo sapiens, A-431, 72 h), 5300 ± 700 nM; against hCK2α, 780 ± 290 nM. The “ligand concentration at which the membrane potential is almost fully uncoupled” value in data set [4] is on record as around 15 µM. Moreover, in data set [4], the “ligand concentration required to recover 50% of the initial fluorescence drop” value is reported as above 5 µM. In addition, the “ligand concentration at which relative fluorescence c.a. 0.95 was reached” value in [4] is around 12 µM. In addition, the ΔTm in [8] (literature data ref 20) is 8.3 ± 0.1[20] K.

Regarding `Brc1c(Br)c(Br)c2[nH]nnc2c1Br` [TBBt, 4,5,6,7-tetrabromo-1H-benzotriazole], the half-inhibitory concentration (IC50) in data set [2] (Homo sapiens) is 48000 ± 18000 nM; in data set [3] (Homo sapiens, HepG2, 72 h) it was 13000 ± 2000 nM; in data set [5] (Homo sapiens, HCT-116, 72 h) it was 23000 ± 9000 nM; in data set [7] (Homo sapiens, A-431, 72 h), 7800 ± 1200 nM.

In the case of `N.N.[Cl][Pt][Cl]` [cisPt, cisplatin], the IC50 in data set [2] (HCT116p53-/-, MTT, fitted to restricted low-concentration data) was 2940 ± 130 nM; in [3] (HEPG2, MTT, 72 h, fitted to restricted low-concentration data), 2430 ± 140 nM; in data set [5] (HCT116, MTT, 72 h, fitted to restricted low-concentration data) it was 4700 ± 600 nM; in [7] (A-431, MTT, 72 h, fitted to restricted low-concentration data) it was 2020 ± 60 nM.
